According to paper PMC7400577 (Scientific Reports, 2020):
Numbering of substitutions follows the chain as printed. Like-named read-outs stand apart in the source and are kept apart here.

Columns and labels:
[1] = target: T1, hBGT1 E52Y (Homo sapiens, UniProt P48065, E52Y); test: cell-based; conditions: 30 nM [3H]GABA, tsA201 cells, transient expression
T1 sequence (P48065 1-614 E52Y): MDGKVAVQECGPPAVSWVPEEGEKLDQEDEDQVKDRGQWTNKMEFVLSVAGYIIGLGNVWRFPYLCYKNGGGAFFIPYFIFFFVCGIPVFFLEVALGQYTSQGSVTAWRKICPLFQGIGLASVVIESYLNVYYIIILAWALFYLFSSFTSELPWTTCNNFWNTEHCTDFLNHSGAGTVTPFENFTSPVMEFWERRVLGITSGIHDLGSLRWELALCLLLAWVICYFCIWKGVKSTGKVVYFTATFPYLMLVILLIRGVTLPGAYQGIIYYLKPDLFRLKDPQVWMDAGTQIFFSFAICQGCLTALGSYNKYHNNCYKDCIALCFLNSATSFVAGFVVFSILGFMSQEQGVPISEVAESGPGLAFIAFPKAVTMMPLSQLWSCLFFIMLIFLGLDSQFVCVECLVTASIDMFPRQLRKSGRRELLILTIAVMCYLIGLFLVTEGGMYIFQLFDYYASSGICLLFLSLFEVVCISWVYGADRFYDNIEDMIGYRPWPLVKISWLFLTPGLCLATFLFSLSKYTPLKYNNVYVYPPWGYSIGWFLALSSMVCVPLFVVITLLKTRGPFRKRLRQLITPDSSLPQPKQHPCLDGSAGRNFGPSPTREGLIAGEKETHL

[2] = target: T2, hGAT1 (Homo sapiens, UniProt P30531); test: [3H]GABA uptake inhibition at hGAT1 stably expressed in CHO Flp-In cells; type: cell-based; conditions: 30 nM [3H]GABA, 3 min, CHO Flp-In cells stably expressing hGAT1; read-out: IC50 hGAT1
T2 construct: expressed in transfected cells
T2 sequence (P30531 whole entry): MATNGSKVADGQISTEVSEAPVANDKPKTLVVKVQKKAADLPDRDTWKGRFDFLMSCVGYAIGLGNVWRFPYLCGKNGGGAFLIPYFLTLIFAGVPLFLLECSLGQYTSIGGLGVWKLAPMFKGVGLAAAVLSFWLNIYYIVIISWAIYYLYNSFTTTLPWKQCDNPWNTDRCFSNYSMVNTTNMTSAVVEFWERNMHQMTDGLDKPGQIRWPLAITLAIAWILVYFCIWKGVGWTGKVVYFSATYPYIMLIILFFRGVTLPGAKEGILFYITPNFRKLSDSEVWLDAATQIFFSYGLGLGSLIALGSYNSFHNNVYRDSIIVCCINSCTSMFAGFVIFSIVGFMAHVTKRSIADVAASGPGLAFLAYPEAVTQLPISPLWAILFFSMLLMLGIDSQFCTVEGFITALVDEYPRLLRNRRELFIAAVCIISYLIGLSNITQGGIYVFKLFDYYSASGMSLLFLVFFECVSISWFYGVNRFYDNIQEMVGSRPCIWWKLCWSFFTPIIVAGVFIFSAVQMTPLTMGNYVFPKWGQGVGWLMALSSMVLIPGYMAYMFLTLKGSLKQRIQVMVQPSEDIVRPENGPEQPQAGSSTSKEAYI
Description: CHO Flp-In and tsA201 cells were cultured at 37 °C in a humidified atmosphere of […] and 5% CO2. As previously described[38],[63], CHO Flp-In cells stably expressing the hGATs were cultured in Ham’s F12 Nutrient Mix supplemented with 10% FBS, 1% P/S and plasmocin (5 µg/mL) under the selection pressure of hygromycin B (200 µg/mL). DMEM with GlutaMAX-I supplemented with 10% FBS and 1% P/S was used as growth medium for the tsA201 cells, which were transfected with DNA constructs using PolyFect according to the manufacturer’s specifications (Qiagen, West Sussex, UK), but with half of the recommended reagent volumes.
Uptake assays were performed in PDL-coated white 96-well polystyrene cell culture microplates (PerkinElmer, Boston, MA, USA) as previously described[38],[63]. […] Assay buffer was HBSS supplemented with 20 mM HEPES, 1 mM CaCl2 and 1 mM MgCl2, pH 7.4. […] After termination, scintillation liquid (MicroScint-20, PerkinElmer) was added and the radioactivity measured in a TopCount NXT Microplate Scintillation Counter (PerkinElmer).
Data analysis and statistical evaluation were performed in GraphPad Prism 7.02 (GraphPad Software, San Diego, CA, USA). Concentration-uptake inhibition curves, generated from the radioligand-based uptake assays, were fitted by non-linear regression, using the equation for sigmoidal concentration–response with variable slope: Y = Bottom + (Top–Bottom)/(1 + 10^((logIC50 − X) × HillSlope)), where Y is the response, X is the logarithm of the concentration, Top and Bottom are the plateaus in same units as Y, logIC50 is the concentration giving a response halfway between Bottom and Top, and the HillSlope is the steepness of the curve. For the substrate concentration–response curves generated from the FMP assay, the same equation was used but with logEC50 instead for logIC50. Unless otherwise stated, data are presented as means ± S.E.M. of at least three independent pooled experiments performed in triplicates.

[3] = target: T3, hBGT1 wt (Homo sapiens, UniProt P48065); test: [3H]GABA uptake inhibition at wt hBGT1 transiently expressed in tsA201 cells; type: cell-based; conditions: 30 nM [3H]GABA, tsA201 cells transiently expressing wt hBGT1
T3 construct: expressed in transfected cells; host or cells: tsA201 cells, transient (PolyFect), pcDNA5/FRT vector
T3 sequence (P48065 1-614): T1 sequence (P48065 1-614 E52Y) with Y52E

[4] = target: T4, hGAT3 wt (Homo sapiens, UniProt P48066); test: [3H]GABA uptake inhibition at wt hGAT3 transiently expressed in tsA201 cells; type: cell-based; conditions: 30 nM [3H]GABA, transient expression
T4 construct: expressed in transfected cells; host or cells: tsA201 cells, transient (PolyFect), pcDNA5/FRT vector
T4 sequence (P48066 1-632): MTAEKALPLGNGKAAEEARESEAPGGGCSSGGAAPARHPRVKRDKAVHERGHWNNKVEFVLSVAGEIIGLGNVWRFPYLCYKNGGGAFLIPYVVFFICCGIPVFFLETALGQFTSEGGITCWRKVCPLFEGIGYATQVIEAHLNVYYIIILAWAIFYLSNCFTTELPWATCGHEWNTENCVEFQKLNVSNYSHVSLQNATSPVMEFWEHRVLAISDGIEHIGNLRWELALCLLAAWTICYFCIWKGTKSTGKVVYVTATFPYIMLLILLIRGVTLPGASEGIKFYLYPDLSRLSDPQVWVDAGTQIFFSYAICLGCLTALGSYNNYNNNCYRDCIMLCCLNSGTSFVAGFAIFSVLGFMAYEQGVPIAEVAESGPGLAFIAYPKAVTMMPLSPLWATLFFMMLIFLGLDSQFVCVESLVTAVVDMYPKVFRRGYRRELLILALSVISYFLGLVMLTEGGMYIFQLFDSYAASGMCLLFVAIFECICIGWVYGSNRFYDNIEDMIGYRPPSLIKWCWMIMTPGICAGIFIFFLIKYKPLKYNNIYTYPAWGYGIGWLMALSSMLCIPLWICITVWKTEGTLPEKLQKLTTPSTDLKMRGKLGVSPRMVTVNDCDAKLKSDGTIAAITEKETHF

[5] = read-out: pIC50 ± S.E.M. BGT1 wt (converted)
[6] = read-out: pIC50 ± S.E.M. GAT3 wt (converted)

NC1=NC=C(C(=O)O)CN1.O=C(O)C(F)(F)F [compound 11]
IC50 ([1]; IC50 BGT1 E52Y): > 1000 µM
IC50 [2]: > 1 mM
IC50 ([3]; read-out: IC50 BGT1 wt): 220 µM
IC50 ([4]; read-out: IC50 GAT3 wt): > 1000 µM

NC1=NCC(C(=O)O)CC1 (stereo not shown) [compound 2, 6-amino-2,3,4,5-tetrahydropyridine-3-carboxylic acid, reference compound]
IC50 ([1]; IC50 BGT1 E52Y): 44 µM
IC50 ([1]; pIC50 ± S.E.M. BGT1 E52Y): 37.2 µM
IC50 [2]: 0.216 mM
IC50 ([3]; read-out: IC50 BGT1 wt): 52 µM
IC50 [3, 5]: 51.3 µM
IC50 ([4]; read-out: IC50 GAT3 wt): > 1000 µM

NC1=NCC(C(=O)O)CN1 (stereo not shown) [ATPCA, 2-amino-1,4,5,6-tetrahydropyrimidine-5-carboxylic acid, reference compound]
IC50 ([1]; IC50 BGT1 E52Y): 5.8 µM
IC50 [2]: > 1 mM
IC50 ([3]; read-out: IC50 BGT1 wt): 11 µM
IC50 [3, 5]: 10.5 µM
IC50 ([4]; read-out: IC50 GAT3 wt): 851 µM
IC50 [4, 6]: 589 µM

Cl.NC1=NCC(C(=O)O)CN1Cc1ccccc1 (stereo not shown) [compound 4]
IC50 ([1]; IC50 BGT1 E52Y): 54 µM
IC50 [2]: > 1 mM
IC50 ([3]; read-out: IC50 BGT1 wt): 354 µM
IC50 [3, 5]: 324 µM
IC50 ([4]; read-out: IC50 GAT3 wt): 122 µM
IC50 [4, 6]: 115 µM

CCN1CC(C(=O)O)CN=C1N.Cl (stereo not shown) [compound 3]
IC50 ([1]; IC50 BGT1 E52Y): 152 µM
IC50 [2]: > 1 mM
IC50 ([3]; read-out: IC50 BGT1 wt): 406 µM
IC50 [3, 5]: 398 µM
IC50 ([4]; read-out: IC50 GAT3 wt): > 1000 µM

C[C@@H]1N=C(N)NC[C@@H]1C(=O)O (single isomer, unassigned) [l-15a]
IC50 ([1]; IC50 BGT1 E52Y): > 1000 µM
IC50 [2]: > 1 mM
IC50 [3, 5]: 20.9 µM
IC50 ([4]; read-out: IC50 GAT3 wt): > 1000 µM
